Source: patent US20250223268A1, “4-Methylsulfonylbenzamide Compound, Preparation Method, Herbicidal Composition And Use” (Jiangsu Flag Chemical Industry Co., Ltd., priority 2022, published 2025)

Legend:
Type in all cases: in vivo
Digitaria sanguinalis [1] = assay: Greenhouse herbicidal activity and crop safety comparison (Test Example 2)
Procedure, shortened: (§1)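 Fresh weight inhibition, banded into grades A to E (E <20%), was rated 14-21 days after foliar spraying of 3-6 leaf plants, or 14-30 days after a soil spray applied 24 h post-sowing.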

Zea mays = assay: as above
Procedure, shortened: as §1

Cyperus iria = assay: Greenhouse herbicidal activity assay, post-emergence; settings: Post-emergence test, rate 150 g a.i./hm^2, grade by fresh weight inhibition rate; for pest or weed control at 150 g/ha: Cyperus iria, read-out: Control efficacy grade, Cyperus iria
Procedure, shortened: (§2)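 Foliar spray at 3-6 leaves; pot-grown in nutrient soil in growth chamber; air-dried post-spray. Read-out at 14-21 d: fresh weight inhibition, graded A (≥80% to 100%) down to E (<20%); NT = not tested.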

Digitaria sanguinalis [2] = assay: as above; settings: Post-emergence test, rate 150 g a.i./hm^2, grade by fresh weight inhibition rate; for pest or weed control at 150 g/ha: Digitaria sanguinalis, read-out: Control efficacy grade, Digitaria sanguinalis
Procedure, shortened: as §2

Echinochloa crusgalli [3] = assay: as above; settings: Post-emergence test, rate 150 g a.i./hm^2, grade by fresh weight inhibition rate; for pest or weed control at 150 g/ha: Echinochloa crus-galli, read-out: Control efficacy grade, Echinochloa crusgalli
Procedure, shortened: as §2

Eclipta prostrata = assay: as above; settings: Post-emergence test, rate 150 g a.i./hm^2, grade by fresh weight inhibition rate; for pest or weed control at 150 g/ha: Eclipta prostrata, read-out: Control efficacy grade, Eclipta prostrata
Procedure, shortened: as §2

Leptochloa chinensis [4] = assay: as above; settings: Post-emergence test, rate 150 g a.i./hm^2, grade by fresh weight inhibition rate; for pest or weed control at 150 g/ha: Dinebra chinensis, read-out: Control efficacy grade, Leptochloa chinensis
Procedure, shortened: as §2

Echinochloa crusgalli [5] = assay: Greenhouse herbicidal activity and crop safety comparison (Test Example 2); settings: for inhibition at 75 g/ha / inhibition at 150 g/ha: Echinochloa crus-galli, read-out: Echinochloa crusgalli, control efficacy grading (fresh weight inhibition rate); for inhibition at 75 g/ha: Rate 75 g/ha; for Echinochloa crusgalli, control efficacy grading (fresh weight inhibition rate) / inhibition at 150 g/ha: Rate 150 g/ha
Procedure, shortened: as §1

[6] = system: Oryza sativa subsp. indica; assay: as above
Procedure, shortened: as §1

[7] = system: Oryza sativa subsp. japonica; assay: as above
Procedure, shortened: as §1

Leptochloa chinensis [8] = assay: as above; settings: Rate 150 g/ha
Procedure, shortened: as §1

[9] = Digitaria sanguinalis, Rate 75 g/ha, read-out: Digitaria sanguinalis, control efficacy grading (fresh weight inhibition rate)
[10] = Digitaria sanguinalis, Rate 150 g/ha, read-out: Digitaria sanguinalis, control efficacy grading (fresh weight inhibition rate)

| Structure (SMILES) | inhibition at 75 g/ha (Digitaria sanguinalis [1]; [9]) [%] | inhibition at 150 g/ha (Digitaria sanguinalis [1]; [10]) [%] | Zea mays, grading of fresh weight inhibition rate (crop safety) (Zea mays; Rate 18.75 g/ha) | Zea mays, grading of fresh weight inhibition rate (crop safety) (Zea mays; Rate 75 g/ha) | Zea mays, grading of fresh weight inhibition rate (crop safety) (Zea mays; Rate 150 g/ha) | Control efficacy grade, Cyperus iria (Cyperus iria) | Control efficacy grade, Digitaria sanguinalis (Digitaria sanguinalis [2]) | Control efficacy grade, Echinochloa crusgalli (Echinochloa crusgalli [3]) | Control efficacy grade, Eclipta prostrata (Eclipta prostrata) | Control efficacy grade, Leptochloa chinensis (Leptochloa chinensis [4]) | Oryza sativa subsp. indica, grading of fresh weight inhibition rate (crop safety) ([6]; Rate 150 g/ha) | Oryza sativa subsp. japonica, grading of fresh weight inhibition rate (crop safety) ([7]; Rate 150 g/ha) | also measured |
| --- | --- | --- | --- | --- | --- | --- | --- | --- | --- | --- | --- | --- | --- |
| Cc1nonc1NC(=O)c1ccc(S(C)(=O)=O)c([S+](C)[O-])c1Cl (centres unmarked) [CK6, reference compound] | 40 to 60 | 40 to 60 | E (Fresh weight inhibition rate<20%) | D (Fresh weight inhibition rate≥20% to <40%) | D (Fresh weight inhibition rate≥20% to <40%) | – | – | – | – | – | – | – | inhibition at 18.75 g/ha (Digitaria sanguinalis [1]; Digitaria sanguinalis, Rate 18.75 g/ha, read-out: Digitaria sanguinalis, control efficacy grading (fresh weight inhibition rate)): < 20% |
| CCC[S+]([O-])c1c(S(C)(=O)=O)ccc(C(=O)Nc2nonc2C)c1Cl (single isomer, unassigned) [Compound 4-3] | – | – | E (Fresh weight inhibition rate<20%) | E (Fresh weight inhibition rate<20%) | E (Fresh weight inhibition rate<20%) | A (Fresh weight inhibition rate≥80% to 100%) | A (Fresh weight inhibition rate≥80% to 100%) | A (Fresh weight inhibition rate≥80% to 100%) | A (Fresh weight inhibition rate≥80% to 100%) | A (Fresh weight inhibition rate≥80% to 100%) | – | – | Digitaria sanguinalis, control efficacy grading (fresh weight inhibition rate) (Digitaria sanguinalis [1]; Rate 18.75 g/ha): A (Fresh weight inhibition rate≥80% to 100%); Digitaria sanguinalis, control efficacy grading (fresh weight inhibition rate) (Digitaria sanguinalis [1]; Rate 75 g/ha): A (Fresh weight inhibition rate≥80% to 100%); Digitaria sanguinalis, control efficacy grading (fresh weight inhibition rate) (Digitaria sanguinalis [1]; Rate 150 g/ha): A (Fresh weight inhibition rate≥80% to 100%) |
| CCS(=O)(=O)c1c(S(C)(=O)=O)ccc(C(=O)Nc2ncnn2C)c1Cl [CK4, reference compound] | 20 to 40 | 40 to 60 | – | E (Fresh weight inhibition rate<20%) | D (Fresh weight inhibition rate≥20% to <40%) | – | – | – | – | – | B (Fresh weight inhibition rate≥260% to <80%) | C (Fresh weight inhibition rate≥40% to <60%) | inhibition at 75 g/ha (Echinochloa crusgalli [5]): 40 to 60%; Oryza sativa subsp. indica, grading of fresh weight inhibition rate (crop safety) ([6]; Rate 75 g/ha): C (Fresh weight inhibition rate≥40% to <60%); Oryza sativa subsp. japonica, grading of fresh weight inhibition rate (crop safety) ([7]; Rate 75 g/ha): C (Fresh weight inhibition rate≥40% to <60%) |
| CCC[S+]([O-])c1c(S(C)(=O)=O)ccc(C(=O)Nc2nonc2C)c1Cl (racemic) [Compound 4-2, 2-chloro-N-(4-methyl-1,2,5-oxadiazol-3-yl)-4-(methylsulfonyl)-3-(propylsulfinyl)benzamide] | 80 to 100 | 80 to 100 | E (Fresh weight inhibition rate<20%) | E (Fresh weight inhibition rate<20%) | E (Fresh weight inhibition rate<20%) | – | – | – | – | – | – | – | pest or weed control at 150 g/ha (Cyperus iria): 80 to 100%; pest or weed control at 150 g/ha (Digitaria sanguinalis [2]): 80 to 100%; pest or weed control at 150 g/ha (Echinochloa crusgalli [3]): 80 to 100%; pest or weed control at 150 g/ha (Eclipta prostrata): 80 to 100%; pest or weed control at 150 g/ha (Leptochloa chinensis [4]): 80 to 100% |
| CCC[S+]([O-])c1c(S(C)(=O)=O)ccc(C(=O)Nc2nonc2C)c1Cl (single isomer, unassigned) [Compound 4-4] | – | – | E (Fresh weight inhibition rate<20%) | E (Fresh weight inhibition rate<20%) | E (Fresh weight inhibition rate<20%) | A (Fresh weight inhibition rate≥80% to 100%) | A (Fresh weight inhibition rate≥80% to 100%) | A (Fresh weight inhibition rate≥80% to 100%) | A (Fresh weight inhibition rate≥80% to 100%) | A (Fresh weight inhibition rate≥80% to 100%) | – | – | Digitaria sanguinalis, control efficacy grading (fresh weight inhibition rate) (Digitaria sanguinalis [1]; Rate 75 g/ha): A (Fresh weight inhibition rate≥80% to 100%); Digitaria sanguinalis, control efficacy grading (fresh weight inhibition rate) (Digitaria sanguinalis [1]; Rate 150 g/ha): A (Fresh weight inhibition rate≥80% to 100%) |
| CC(C)c1nnc(NC(=O)c2ccc(S(C)(=O)=O)c(S(=O)(=O)C(C)C)c2Cl)o1 [Compound 3-508] | – | – | – | – | – | A (Fresh weight inhibition rate≥80% to 100%) | A (Fresh weight inhibition rate≥80% to 100%) | A (Fresh weight inhibition rate≥80% to 100%) | A (Fresh weight inhibition rate≥80% to 100%) | A (Fresh weight inhibition rate≥80% to 100%) | E (Fresh weight inhibition rate<20%) | E (Fresh weight inhibition rate<20%) | Echinochloa crusgalli, control efficacy grading (fresh weight inhibition rate) (Echinochloa crusgalli [5]): A (Fresh weight inhibition rate≥80% to 100%); Leptochloa chinensis, control efficacy grading (fresh weight inhibition rate) (Leptochloa chinensis [8]): A (Fresh weight inhibition rate≥80% to 100%) |
| CCC(C)S(=O)(=O)c1c(S(C)(=O)=O)ccc(C(=O)Nc2nnco2)c1Cl (racemic) [Compound 3-290] | – | – | – | – | – | A (Fresh weight inhibition rate≥80% to 100%) | A (Fresh weight inhibition rate≥80% to 100%) | A (Fresh weight inhibition rate≥80% to 100%) | A (Fresh weight inhibition rate≥80% to 100%) | A (Fresh weight inhibition rate≥80% to 100%) | E (Fresh weight inhibition rate<20%) | E (Fresh weight inhibition rate<20%) | Echinochloa crusgalli, control efficacy grading (fresh weight inhibition rate) (Echinochloa crusgalli [5]): A (Fresh weight inhibition rate≥80% to 100%); Leptochloa chinensis, control efficacy grading (fresh weight inhibition rate) (Leptochloa chinensis [8]): A (Fresh weight inhibition rate≥80% to 100%) |
| Cn1ncnc1NC(=O)c1ccc(S(C)(=O)=O)c(S(C)(=O)=O)c1Cl [CK3, reference compound] | < 20 | 20 to 40 | – | E (Fresh weight inhibition rate<20%) | D (Fresh weight inhibition rate≥20% to <40%) | – | – | – | – | – | B (Fresh weight inhibition rate≥260% to <80%) | C (Fresh weight inhibition rate≥40% to <60%) | inhibition at 75 g/ha (Echinochloa crusgalli [5]): 40 to 60%; inhibition at 150 g/ha (Echinochloa crusgalli [5]): 80 to 100%; Oryza sativa subsp. indica, grading of fresh weight inhibition rate (crop safety) ([6]; Rate 75 g/ha): D (Fresh weight inhibition rate≥20% to <40%); Oryza sativa subsp. japonica, grading of fresh weight inhibition rate (crop safety) ([7]; Rate 75 g/ha): D (Fresh weight inhibition rate≥20% to <40%) |
| CCc1nnc(NC(=O)c2ccc(S(C)(=O)=O)c(S(=O)(=O)C(C)C)c2Cl)o1 [Compound 3-392, 2-chloro-N-(5-ethyl-1,3,4-oxadiazol-2-yl)-3-(isopropylsulfonyl)-4-(methylsulfonyl)benzamide] | – | – | – | – | – | – | – | – | – | – | E (Fresh weight inhibition rate<20%) | E (Fresh weight inhibition rate<20%) | inhibition at 150 g/ha (Echinochloa crusgalli [5]): 80 to 100%; inhibition at 150 g/ha (Leptochloa chinensis [8]; Dinebra chinensis, read-out: Leptochloa chinensis, control efficacy grading (fresh weight inhibition rate)): 80 to 100%; pest or weed control at 150 g/ha (Cyperus iria): 80 to 100%; pest or weed control at 150 g/ha (Digitaria sanguinalis [2]): 80 to 100%; pest or weed control at 150 g/ha (Echinochloa crusgalli [3]): 80 to 100%; pest or weed control at 150 g/ha (Eclipta prostrata): 80 to 100%; pest or weed control at 150 g/ha (Leptochloa chinensis [4]): 80 to 100% |
